Results as given in ChEMBL document CHEMBL1201862, “PubChem BioAssay data set” (2004).
The source made the active and inactive calls. Rule as the data show it: actives have a measured IC50 and inactives only a lower limit.

Target: Envelope glycoprotein gp160 (Human immunodeficiency virus 1, UniProt Q6QLK5)
Experiment: inhibitors of HIV fusion peptide binding, primary screen, biochemical, uHTS, fluorescence dequenching (AID 1986)

Sequence of Envelope glycoprotein gp160 (Q6QLK5 whole entry, the tested form may be a part): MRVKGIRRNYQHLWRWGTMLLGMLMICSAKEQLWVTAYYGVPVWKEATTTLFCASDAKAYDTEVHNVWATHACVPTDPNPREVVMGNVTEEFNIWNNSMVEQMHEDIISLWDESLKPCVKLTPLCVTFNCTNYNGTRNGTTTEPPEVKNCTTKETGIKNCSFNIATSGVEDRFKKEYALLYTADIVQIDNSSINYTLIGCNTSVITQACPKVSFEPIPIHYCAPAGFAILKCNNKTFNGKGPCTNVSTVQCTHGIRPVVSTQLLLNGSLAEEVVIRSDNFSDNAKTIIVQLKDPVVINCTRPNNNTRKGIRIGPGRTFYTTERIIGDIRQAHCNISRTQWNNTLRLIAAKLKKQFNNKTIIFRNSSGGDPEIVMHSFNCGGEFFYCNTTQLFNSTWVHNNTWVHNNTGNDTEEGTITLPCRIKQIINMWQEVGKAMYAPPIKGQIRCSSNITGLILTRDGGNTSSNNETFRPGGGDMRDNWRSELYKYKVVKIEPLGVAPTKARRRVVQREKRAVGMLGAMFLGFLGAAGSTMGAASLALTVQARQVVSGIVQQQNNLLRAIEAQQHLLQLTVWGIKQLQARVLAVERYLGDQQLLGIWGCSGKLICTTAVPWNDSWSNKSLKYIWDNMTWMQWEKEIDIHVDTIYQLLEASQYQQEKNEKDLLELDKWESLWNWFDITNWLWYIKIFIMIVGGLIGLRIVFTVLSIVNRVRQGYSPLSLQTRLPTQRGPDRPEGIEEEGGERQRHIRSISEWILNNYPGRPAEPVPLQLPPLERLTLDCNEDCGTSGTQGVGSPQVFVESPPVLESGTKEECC

In the case of `Cc1c(CCC(=O)O)c(=O)oc2c(C)c3occ(-c4ccc(Br)cc4)c3cc12`, the IC50 is reported as 21.3 µM (active).
